Marks after values point to notes of the source that are not given here.
Key:
aconitase = assay: Mitochondrial aconitase activity in heart homogenates; conditions: ex vivo heart, Cas at IC50, Doxo 5 μM
Procedure: (§1) To measure the energetic metabolites ATP, phosphocreatine (PCr), and aconitase activity at the end of the perfusion protocols, samples were prepared as follows: the hearts were removed from the perfusion system by cutting the aorta and immediately flash-frozen with liquid N2, weighed, and stored at −80°C. Afterward, the hearts were homogenized in ice-cold buffer containing 250 mM sucrose, 10 mM HEPES, and 1 mM EDTA (pH 7.4). For enzymatic determination, aliquots of the homogenate were immediately frozen in liquid nitrogen and stored at −80°C. Quantification of ATP and PCr was carried out in a HPLC system with a dual-pump gradient (Waters Chromatography, Toronto, Canada) as previously described.

caspases 3 and 7 = assay: Caspase-Glo 3/7 activity in cell lysates; format: cell-based, rat; conditions: cardiomyocytes treated at IC50, compared to Doxo or the control
Excerpt: (§2) Ventricular cardiomyocytes were obtained from male Wistar rats (250–300 g) by digestion with collagenase type II as previously described. Cells were washed in Tyrode solution (mM): 130 NaCl, 5.4 KCl, 0.4 NaH2PO4, 0.5 MgCl2, 25 HEPES, and 5 glucose with pH 7.4. After isolation, cells were cultivated at a density of 3.2 × 10^3 viable cells/well in 96-well plates pretreated with laminin in M-199 medium supplemented in mM with 5 taurine, 5 creatine, 2 L-carnitine, 2.5 sodium pyruvate, and penicillin-streptomycin at 100 U·ml^−1 and 100 μg·ml^−1, respectively, at 37°C, with 5% CO2 and 95% air. After incubation for three hours, varying concentrations of Cas were tested in triplicate, exposing the myocytes during 24 hours to each treatment. At the end of the incubation period, the cytotoxicity of Cas was measured using the Alamar Blue viability test (Life Technologies, Carlsbad, CA, USA). Release of cytoplasmic lactate dehydrogenase (LDH) was determined using CytoTox-ONE homogeneous membrane integrity kit (Promega Madison, WI, USA). The activity of caspases 3/7 and caspase 9 was measured in cell lysates using caspase-Glo 3/7 and caspase-Glo 9 test luminescent assay (Promega, Madison, WI, USA), respectively. The cardiomyoblast cell line H9c2 (ATCC CRL-1446) was maintained using standard procedures in DMEM supplemented with 10% fetal bovine serum prior to the oxidative stress experiments.

[1] = tested on: mitochondria isolated from Cas-treated hearts; assay: Respiratory activity of mitochondria isolated from treated hearts (Clark-type oxygen electrode); set-up: species or system rat; conditions: for State 4 respiration: 10 mM glutamate-malate; for Respiratory control / State 3 respiration: malate/glutamate; for State 3 respiration: after 100 μM ADP; for decrease in state 3 respiration rate / reduction in maximal respiration: versus control
Procedure: (§3) To measure mitochondrial oxygen consumption, mitochondrial membrane potential, and Ca^2+ uptake, cytochrome c samples were prepared as follows: after perfusion, heart tissue from the left ventricle was minced and homogenized in cold mitochondrial isolation medium (in mM: 125 KCl, 1 EDTA, and 10 HEPES-HCl; pH 7.3). The mitochondrial fraction was obtained by differential centrifugation using the protease Nagarse, as previously described. Mitochondrial oxygen consumption was measured using a Clark-type oxygen electrode. The experiments were carried out in respiration assay medium containing 125 KCl, 10 HEPES-HCl, and 3 KH2PO4 (in mM) with pH 7.3. State 4 respiration was measured in the presence of 10 mM glutamate-malate, and state 3 respiration was evaluated after addition of 100 μM ADP. Maximal respiration was determined with 0.08 μM of carbonyl cyanide m-chlorophenyl hydrazine (CCCP). The mitochondrial membrane potential was measured by fluorometry using 5 μM safranine. Mitochondrial Ca^2+ uptake was determined with the metalochromic indicator, Arsenazo III, or calcium green 5N (5N-CG), using a medium containing 50 μM Arsenazo or 10 μM 5N-CG, 10 mM succinate plus rotenone (0.1 μg·ml^−1), 200 μM ADP, and 0.25 μg oligomycin A. Pulses of 10 nmol Ca^+2 were added every 3 minutes to reach a Ca^+2 release due to MPT opening. Mitochondrial cytochrome c quantification from Cas-treated hearts was performed using Western blot analysis as described previously. The blots were developed with Luminata crescendo substrate (Merck Millipore, Darmstadt, Germany) and detected with VisionWorks LS-UVP Chimio System (BioSpectrum 415 Imaging System, Cambridge, UK).

[2] = tested on: mitochondrial permeability transition pore; assay: Mitochondrial Ca2+ retention capacity (MPT opening); set-up: species or system rat; conditions: for protective effect of CsA on Ca2+ retention capacity: mitochondria from treated hearts, CsA 0.5 μM added in vitro
Procedure: as §3

isolated rat hearts [3] = assay: Langendorff-perfused isolated rat heart: mechanical performance (RPP, HR, ±dP/dt, cardiac efficiency); conditions: for t 0.5, time for half-inhibition of RPP / IC50: isolated rat heart; for t 0.5, time for half-inhibition of RPP: 5 μM; for heart rate (HR) reduction: perfused at 5 μM; for IC50: read-out: IC50, half-maximal inhibitory concentration for RPP (heart contractile function), at 30 min perfusion
Procedure: (§4) Male Wistar rats (250–300 g) were injected with heparin (10^3 U·kg^−1, i.p.) 20 minutes prior to anesthesia with pentobarbital (100 mg·kg^−1, i.p.). When bilateral corneal reflex was absent, the heart was excised through an abdominal approach. Then, the ascending aorta was visualized and cut and the heart was placed in a cardioplegic solution. To avoid ischemia, the time between cutting the diaphragm to placing the heart in the solution was less than 60 seconds. The hearts were mounted in accordance with the Langendorff model and perfused at a constant flow (12 ml·min^−1) with a Krebs-Henseleit buffer as previously described. A latex balloon connected to a pressure transducer filled with saline solution was inserted into the left ventricle after establishing autonomous contraction. The pulmonary artery was cannulated and connected to a closed chamber using a Clark-type oxygen electrode (Yellow Springs Instruments, Yellow Springs, Ohio) to measure myocardial oxygen consumption (MVO2) in the coronary effluent. The rate of MVO2 was calculated as the difference between the concentration in the K-H buffer before (100%) and after perfusion. Data Trax software (WPI, Sarasota, Florida) was used for continuous recording of the heart rate (HR), left ventricular pressure (LVP), MVO2, and maximum positive and negative derivative of left ventricular pressure (±dP/dt). The baseline was established during 10–15 minutes of K-H perfusion. Each concentration of Cas or Doxo remained in the heart for 30 min. Hearts in the control group were perfused with K-H buffer during the whole experimental time. Rate pressure product (RPP = HR × LVP) and cardiac efficiency ([…]) were calculated as previously reported.

subcutaneous tumors = conditions: nude mice ref 29; cited from earlier work
[4] = tested on: α-ketoglutarate dehydrogenase; set-up: method as in PMID 26739598; conditions: cited from earlier work
cytochrome c = assay: Mitochondrial cytochrome c content by Western blot; set-up: species or system rat; conditions: heart mitochondria after 30 min perfusion at IC50
Procedure: as §3, with “Mitochondrial cytochrome c quantification from Cas-treated hearts was performed using Western blot analysis as described previously. The blots were developed with Luminata crescendo substrate (Merck Millipore, Darmstadt, Germany) and detected with VisionWorks LS-UVP Chimio System (BioSpectrum 415 Imaging System, Cambridge, UK).” left out

isolated rat hearts [5] = assay: Myocardial oxygen consumption and energetic metabolites (ATP, PCr) in perfused hearts; conditions: Cas at IC50, Doxo 5 μM
Procedure: as §4, §1

caspase 9 = assay: Caspase-Glo 9 activity in cell lysates; format: cell-based, rat; conditions: cardiomyocytes treated at IC50
Excerpt: as §2

[6] = tested on: adult rat ventricular myocytes; assay: Cardiomyocyte viability, Alamar Blue; format: cell-based; conditions: 24 h treatment, read-out: LD50 (IC50) for cardiomyocyte viability
Excerpt: as §2

isolated cardiomyocytes = assay: LDH release (CytoTox-ONE); format: cell-based, rat; conditions: cardiomyocytes treated at IC50 (II-gly 2 μM, Doxo 10 μM)
Excerpt: as §2

CC(=O)C=C(C)[O-].Cc1ccnc(-c2cc(C)ccn2)c1.O.O.O=[N+]([O-])[O-].[Cu+2] [Cas III-ia, Aqua(4,4-dimethyl-2,2′bipyridine)(acetylacetonate)copper(II)nitrate]
aconitase activity (aconitase): decreased
increase in activity of caspases 3 and 7 (caspases 3 and 7): ~ 4 fold
Max. respiration ([1]; 0.08 μM CCCP): 12.3 ± 2.6^∗ nmol O min^−1·mg^−1
State 4 respiration [1]: 15.6 ± 2.6 nmol O min^−1·mg^−1
Respiratory control [1]: 1.3 ± 0.1^∗
State 3 respiration [1]: 18.5 ± 0.6^∗ nmol O min^−1·mg^−1
decrease in state 3 respiration rate [1]: 78%
reduction in maximal respiration [1]: 87%
protective effect of CsA on Ca2+ retention capacity [2]: 28%
+dP/dt × 1000 (contraction rate) (isolated rat hearts [3]; hearts treated at the IC50): 2.4 ± 0.20^∗ mmHg·s^−1
−dP/dt × 1000 (relaxation rate) (isolated rat hearts [3]; hearts treated at the IC50): −1.0 ± 0.16^∗ mmHg·s^−1
t 0.5, time for half-inhibition of RPP (isolated rat hearts [3]): 49 ± 0.8^a,b,c min
heart rate (HR) reduction (isolated rat hearts [3]): not affected
IC50 (isolated rat hearts [3]): 10 ± 0.7 µM
reduction of the volume of subcutaneous tumors (subcutaneous tumors): 81%
α-ketoglutarate dehydrogenase activity compared with III-Ea [4]: twofold decrease
mitochondrial cytochrome c content (cytochrome c): reduction of cytochrome c
PCr levels (isolated rat hearts [5]): decreased
change in MVO2 (isolated rat hearts [5]): no changes
decrease in ATP content (isolated rat hearts [5]): 37%

Cc1ccnc2c1ccc1c(C)ccnc12.NCC(=O)[O-].O.O.O=[N+]([O-])[O-].[Cu+2] [Cas II-gly, Aqua(4,7-dimethyl-1,10-phenanthroline)(glycinate)copper(II)nitrate]
increase in caspase 9 activity (caspase 9): 1.7 fold
increase in activity of caspases 3 and 7 (caspases 3 and 7): ~ 4 fold
State 4 respiration [1]: 13.0 ± 5.0 nmol O min^−1·mg^−1
Respiratory control [1]: 1.6 ± 0.3^∗
State 3 respiration [1]: 20.2 ± 7.3^∗ nmol O min^−1·mg^−1
decrease in state 3 respiration rate [1]: 77%
reduction in maximal respiration [1]: 82%
decrease of mitochondrial Ca2+ retention capacity ([2]; mitochondria from hearts treated at IC50, versus control): 46.5%
protective effect of CsA on Ca2+ retention capacity [2]: 60%
decrease of cardiac efficiency (CE) (isolated rat hearts [3]; at IC50 for RPP): 23%
+dP/dt × 1000 (contraction rate) (isolated rat hearts [3]; hearts treated at the IC50): 2.0 ± 0.13^∗ mmHg·s^−1
Cardiac efficiency (isolated rat hearts [3]; hearts treated at the IC50): 4.8 ± 0.81 RPP · MVO2 ^−1
−dP/dt × 1000 (relaxation rate) (isolated rat hearts [3]; hearts treated at the IC50): −0.7 ± 0.09^∗ mmHg·s^−1
t 0.5, time for half-inhibition of RPP (isolated rat hearts [3]): 29 ± 1.0^d min
heart rate (HR) reduction (isolated rat hearts [3]): not affected
IC50 (isolated rat hearts [3]): 5.5 ± 0.5 µM
IC50 [6]: 2 ± 0.5 µM
increase in LDH release compared to the control (isolated cardiomyocytes): 3.5 fold
mitochondrial cytochrome c content (cytochrome c): reduction of cytochrome c
PCr/ATP ratio (isolated rat hearts [5]): augmented

Source: paper PMC5889877, “Ex Vivo Cardiotoxicity of Antineoplastic Casiopeinas Is Mediated through Energetic Dysfunction and Triggered Mitochondrial-Dependent Apoptosis” (Oxidative Medicine and Cellular Longevity, 2018)
